SMILES strings stand for the structures.

For the test, the target named is full-length recombinant human FYN A (Homo sapiens (Human), UniProt P06241). Description: ADP-Glo Kinase Assay of FYN kinase inhibition. The settings on record: primary screen, initial compounds. The class given is biochemical. In short, it runs like this: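 GST-tagged full-length FYN A (baculovirus, Sf9) at 3 pg preincubated 30 min RT with compound (10-point 3-fold series from 10 μM) in Tris pH 7.5/MgCl2 buffer. 12-mer tyrosine peptide plus 12.5 pmol ATP added, 90 min RT; ADP measured by ADP-Glo luminescence, IC50 from dose-response.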
Chain of full-length recombinant human FYN A (P06241 whole entry): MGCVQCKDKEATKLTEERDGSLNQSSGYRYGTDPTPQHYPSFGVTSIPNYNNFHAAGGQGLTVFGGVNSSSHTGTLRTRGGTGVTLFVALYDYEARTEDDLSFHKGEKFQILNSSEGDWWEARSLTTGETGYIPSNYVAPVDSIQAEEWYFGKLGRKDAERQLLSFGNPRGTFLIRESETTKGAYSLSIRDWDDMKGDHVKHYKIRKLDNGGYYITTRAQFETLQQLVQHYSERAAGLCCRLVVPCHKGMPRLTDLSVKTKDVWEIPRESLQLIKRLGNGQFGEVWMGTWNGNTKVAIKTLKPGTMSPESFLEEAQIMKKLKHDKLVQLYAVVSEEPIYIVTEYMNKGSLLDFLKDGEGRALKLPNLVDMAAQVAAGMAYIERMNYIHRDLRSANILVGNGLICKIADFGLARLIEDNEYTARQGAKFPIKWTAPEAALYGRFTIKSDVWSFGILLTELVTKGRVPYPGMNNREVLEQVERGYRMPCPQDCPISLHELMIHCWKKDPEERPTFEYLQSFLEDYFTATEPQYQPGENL
On the technique in general: In ADP-Glo the light output rises with the ADP produced.
`COc1ccc(CNc2nn3c(-c4ccc(O)c(OC)c4)cnc3s2)cc1` [Compound 559, 2-methoxy-4-[2-[(4-methoxy-phenyl)methyl-amino]imidazo [2,1-b][1,3,4]thiadiazol-5-yl]phenol]: the 50% inhibitory concentration (IC50) (usually the concentration that gives 50% inhibition) was determined as 1.78 µM.

With `COc1ccc(-c2cnc3sc(NCc4cccnc4)nn23)cn1` [Compound 560, 5-(6-methoxy-3-pyridyl)-N-(3-pyridylmethyl) imidazo[2,1-b] [1,3,4]thiadiazol-2-amine], the IC50 worked out at 2.94 µM.

Take `Fc1ccc(-c2cnc3sc(NCCN4CCOCC4)nn23)cc1Cl` [Compound 561, 5-(3-chloro-4-fluoro-phenyl)-N-(2-morpholino-ethyl)imidazo [2,1-b][1,3,4] thiadiazol-2-amine]: the IC50 is 4.82 µM.

In the case of `c1cc(CCNc2nn3c(-c4ccncc4)cnc3s2)ccn1` [Compound 562], the IC50 turned out to be 2.43 µM.

On to `COc1ccc(-c2cnc3sc(NC4CCC(O)CC4)nn23)cn1` (stereo not shown) [Compound 563, 4-[[5-(6-methoxy-3-pyridyl)imidazo[2,1-b] [1,3,4]thiadiazol-2-yl]amino] cyclohexanol], for which the IC50 was found to be 1.61 µM.

With `CC(=O)c1ccc(-c2cnc3sc(NCCN4CCOCC4)nn23)s1` [Compound 564, 1-[5-[2-(2-morpholinoethyl-amino)imidazo [2,1-b][1,3,4]thiadiazol-5-yl]-2-thienyl] ethanone], the IC50 came out at 3 µM.

In the case of `COc1ccccc1-c1cc(NC(C)=O)c2ncc(-c3cccc(C(C)=O)c3)n2c1` [Compound 565, N-[3-(3-acetylphenyl)-6-[2-methoxy-phenyl)imidazo [1,2-a]pyridin-8-yl]acetamide], the IC50 was found to be 1.58 µM.

For the compound `CS(=O)(=O)Nc1cccc(-c2cc(NC=O)c3ncc(-c4ccc(F)c(Cl)c4)n3c2)c1` [Compound 566, N-[3-(3-chloro-4-fluoro-phenyl)-6-[3-(methane-sulfonamido)phenyl]imidazo [1,2-a]pyridin-8-yl]formamide], the IC50 stood at 2.86 µM.

`c1csc(CNc2nn3c(-c4ccncc4)cnc3s2)c1` [Compound 567, 5-(4-pyridyl)-N-(2-thienylmethyl) imidazo[2,1-b] [1,3,4]thiadiazol-2-amine]: the IC50 amounted to 3.62 µM.

On to `CS(=O)(=O)Nc1cccc(-c2cnc3sc(NC4CCCCC4)nn23)c1` [Compound 568, N-[3-[2-(cyclohexylamino)imidazo[2,1-b] [1,3,4]thiadiazol-5-yl]phenyl] methane-sulfonamide], for which the IC50 was determined as 4.33 µM.

Regarding `CC(C)CNc1nn2c(-c3cccc(C(N)=O)c3)cnc2s1` [Compound 569, 3-[2-(isobutylamino)imidazo[2,1-b] [1,3,4]thiadiazol-5-yl]benzamide], the IC50 turned out to be 1.13 µM.

In the case of `OC1CCC(Nc2nn3c(-c4cccc(F)c4)cnc3s2)CC1` (stereo not shown) [Compound 571, 4-[[5-(3-fluorophenyl)imidazo[2,1-b] [1,3,4]thiadiazol-2-yl]amino] cyclohexanol], the IC50 was 2.92 µM.

On to `COc1ccc(-c2cnc3sc(NC4CCC(O)CC4)nn23)cc1OC` (stereo not shown) [Compound 572, 4-[[5-(3,4-dimethoxyphenyl)imidazo[2,1-b] [1,3,4]thiadiazol-2-yl]amino] cyclohexanol], for which the IC50 was determined as 0.483 µM.

`c1cncc(-c2cnc3sc(NCc4cccs4)nn23)c1` [Compound 573, 5-(3-pyridyl)-N-(2-thienylmethyl) imidazo[2,1-b] [1,3,4]thiadiazol-2-amine]: the IC50 came out at 1.94 µM.

Take `COc1ccc(-c2cnc3sc(NCc4ccncc4)nn23)cc1OC` [Compound 574, 5-(3,4-dimethoxy-phenyl)-N-(4-pyridylmethyl) imidazo[2,1-b] [1,3,4]thiadiazol-2-amine]: the IC50 is 2.13 µM.

With `CC(=O)Nc1cc(-c2ccc(N)cc2)cn2c(-c3ccc(F)cc3)cnc12` [Compound 575, N-[6-(4-aminophenyl)-3-(4-fluorophenyl)imidazo[1,2-a]pyridin-8-yl]acetamide], the concentration for half-maximal inhibition (IC50) came to 5.25 µM.

Consider `Cn1cc(-c2cc(NC=O)c3ncc(-c4ccc(F)cc4)n3c2)cn1` [Compound 576, N-[3-(4-fluorophenyl)-6-(1-methylpyrazol-4-yl)imidazo[1,2-a]pyridin-8-yl]formamide], for which the IC50 worked out at 8.09 µM.

Take `COc1cccc(-n2c(N)c(C(N)=O)c3nc4ccccc4nc32)c1` [Compound 577, 2-amino-1-(3-methoxyphenyl) pyrrolo[3,2-b]quinoxaline-3-carboxamide]: the IC50 worked out at 1.18 µM.

`Fc1cccc(-c2cnc3sc(NC4CCCCC4)nn23)c1` [Compound 578, N-cyclohexyl-5-(3-fluorophenyl) imidazo[2,1-d] [1,3,4]thiadiazol-2-amine]: the IC50 is 4.08 µM.

With `c1cncc(-c2cnc3sc(NCc4ccco4)nn23)c1` [Compound 579, N-(2-furylmethyl)-5-(3-pyridyl)imidazo [2,1-a][1,3,4] thiadiazol-2-amine], the IC50 was 3.16 µM.

For `Cn1cc(-c2cnc3sc(NCc4ccco4)nn23)cn1` [Compound 580, N-(2-furylmethyl)-5-(1-methylpyrazol-4-yl)imidazo [2,1-b][1,3,4] thiadiazol-2-amine], the IC50 amounted to 5.64 µM.

For the compound `COc1cncc(-c2cnc3sc(NCc4cccs4)nn23)c1` [Compound 581, 5-(5-methoxy-3-pyridyl)-N-(2-thienylmethyl) imidazo[2,1-b] [1,3,4]thiadiazol-2-amine], the IC50 was 0.729 µM.

Consider `COc1ccc(-c2cnc3sc(NCC(C)C)nn23)cc1OC` [Compound 582, 5-(3,4-dimethoxy-phenyl)-N-isobutyl-imidazo [2,1-b][1,3,4] thiadiazol-2-amine], for which the IC50 worked out at 2.75 µM.

With `CC(=O)c1cccc(-c2cnc3sc(NCC(C)C)nn23)c1` [Compound 583, 1-[3-[2-(isobutyl-amino)imidazo [2,1-a][1,3,4]thiadiazol-5-yl]phenyl] ethanone], the IC50 was determined as 15.1 µM.

As to `c1ccc(CNc2nn3c(-c4cccnc4)cnc3s2)cc1` [Compound 584, N-benzyl-5-(3-pyridyl)imidazo [2,1-b][1,3,4] thiadiazol-2-amine], the IC50 came to 0.839 µM.

In the case of `COc1cncc(-c2cnc3sc(NCc4ccccc4)nn23)c1` [Compound 585, N-benzyl-5-(5-methoxy-3-pyridyl)imidazo [2,1-b][1,3,4] thiadiazol-2-amine], the 50% inhibitory concentration (IC50) was 0.343 µM.

As for `c1cncc(-c2cnc3sc(NCC4CCOCC4)nn23)c1` [Compound 586, 5-(3-pyridyl)-N-(tetrahydropyran-4-ylmethyl) imidazo[2,1-b] [1,3,4]thiadiazol-2-amine], the IC50 came to 4.85 µM.

As to `COc1cncc(-c2cnc3sc(NCC4CCOCC4)nn23)c1` [Compound 587, 5-(5-methoxy-3-pyridyl)-N-(tetrahydro-pyran-4-ylmethyl)imidazo [2,1-d][1,3,4] thiadiazol-2-amine], the IC50 came to 0.384 µM.

For the compound `COc1ccc(CNc2nn3c(-c4cncc(OC)c4)cnc3s2)cc1` [Compound 588, N-[(4-methoxyphenyl)methyl]-5-(5-methoxy-3-pyridyl)imidazo [2,1-3][1,3,4] thiadiazol-2-amine], the IC50 amounted to 9.65 µM.

In the case of `Cc1ccccc1CNc1nn2c(-c3cccnc3)cnc2s1` [Compound 589, N-(o-tolylmethyl)-5-(3-pyridyl) imidazo[2,1-b] [1,3,4]thiadiazol-2-amine], the IC50 stood at 1.08 µM.

Take `CN1CCN(c2ccc(Nc3cc4c(cn3)cc(-c3cccc(C(F)(F)F)c3)n4C)cc2)CC1` [Compound 590, 1-methyl-N-[4-(4-methylpiperazin-1-yl)phenyl]-2-[3-(trifluoromethyl)phenyl]pyrrolo [3,2-c]pyridin-6-amine]: the IC50 is 30 µM.

In the case of `Cn1c(-c2cccc(C(F)(F)F)c2)cc2cnc(Nc3ccncn3)cc21` [Compound 591, 1-methyl-N-pyrimidin-4-yl-2-[3-(trifluoro-methyl)phenyl] pyrrolo[3,2-c]pyridin-6-amine], the IC50 was determined as 16.8 µM.

In the case of `CN1CCN(c2ccc(Nc3cc4c(cn3)cc(-c3cccc(F)c3)n4C)cc2)CC1` [Compound 592, 2-(3-fluorophenyl)-1-methyl-N-[4-(4-methylpiperazin-1-yl)phenyl] pyrrolo[3,2-c]pyridin-6-amine], the IC50 is 12.9 µM.

For `Cn1c(-c2cccc(F)c2)cc2cnc(Nc3ccncn3)cc21` [Compound 593, 2-(3-fluorophenyl)-1-methyl-N-pyrimidin-4-yl-pyrrolo[3,2-c]pyridin-6-amine], the IC50 was found to be 9.09 µM.

With `NC1=C(c2nc3ccccc3[nH]2)C(=O)CN1c1ccc2c(c1)OCO2` [Compound 594, 5-amino-4-(1H-benzimidazol-2-yl)-1-(1,3-benzodioxol-5-yl)-2H-pyrrol-3-one], the IC50 was found to be 4.07 µM.

Consider `CN1CCN(c2ccc(Nc3nccc4[nH]c(-c5ccc(C(=O)N(C)C)cc5)cc34)cc2)CC1` [Compound 595, N,N-dimethyl-4-[4-[4-(4-methylpiperazin-1-yl)anilino]-1H-pyrrolo[3,2-c]pyridin-2-yl]benzamide], for which the IC50 turned out to be 7.04 µM.

In the case of `COc1cc(OC)cc(-c2cc3c(N4CCOCC4)nccc3[nH]2)c1` [Compound 596, 4-[2-(3,5-dimethoxy-phenyl)-1H-pyrrolo[3,2-c]pyridin-4-yl]morpholine], the IC50 turned out to be 30 µM.

As to `COc1ccccc1-c1cc2c(Nc3ccc(NC(C)=O)cc3)nccc2[nH]1` [Compound 597, N-[4-[[2-(2-methoxyphenyl)-1H-pyrrolo[3,2-c]pyridin-4-yl]amino]phenyl] acetamide], the IC50 came out at 30 µM.

On to `COc1ccccc1-c1cc2c(Nc3cccc(C(F)(F)F)c3)nccc2n1C` [Compound 598, 2-(2-methoxyphenyl)-1-methyl-N-[3-(trifluoromethyl)phenyl]pyrrolo [3,2-c]pyridin-4-amine], for which the IC50 is 30 µM.

Regarding `COc1ccc(OC)c(-n2c(-c3ccc(F)cc3)cn3c4c(=O)[nH]c(=O)n(C)c4nc23)c1` [Compound 599, 8-(2,5-dimethoxy-phenyl)-7-(4-fluorophenyl)-1-methyl-3H-imidazo [1,2-g]purine-2,4-dione], the IC50 stood at 18.4 µM.
